Experimental data: patent publication US12332245B2, “Cancer biomarkers and methods of use thereof” (THE REGENTS OF THE UNIVERSITY OF CALIFORNIA, priority 2006, dated 2025)

Assays:
Format in all cases: cell-based, human
[1] = tested on: COX-2 in HMEC; assay: exogenous induction of COX-2 by TGF-β in HMEC with modulated p16/Rb pathway (immunoblot)
Excerpt: DNA constructs. DNA constructs used in this study are as follows: pMSCV, pMSCV-shp16 (G. Hannon and S. Lowe, Cold Spring Harbor Laboratories); pLXSN, pLXSN-HPV 16 E7 (D. Galloway, Fred Hutchinson Cancer Center); pMKO, pMKO-shRb (W. Hahn, Harvard Medical School and Dana-Farber Cancer Institute), pBabe; pBabe-cyclinD1 (O. Tetsu, UCSF Cancer Center), pBabe, pBabe-hTert (K. Collins, UC-Berkeley); LXSP and LXSP-COX-2 (D. Dixon, Vanderbilt University Medical Center). All constructs were packaged in Phoenix A cells for viral propagation. To generate stable cell lines we exposed HMEC, vHMEC or breast cell lines to viral supernatant containing 8 μg/ml Polybrene (Sigma). Cells containing stable DNA integration were selected in medium containing 4 μg/ml puromycin (pMSCV, pMKO, and LXSP constructs), 50 μg/ml G418 (LXSN constructs) or 20 μg/nil hygromycin (pBabe). Where indicated, cell lines were imaged using a standard phase contrast microscopy.
Western Blot. Total protein (15-20 μg) lysates were electrophoretically separated by SDS-PAGE and transferred onto polyvinylidene difluoride (PVDF) membranes according to standard procedures. Antisera against COX-2 (160107; Cayman Chemical, MI), Rb (554136, BD Pharmingen), p16 (16P07 Neomarkers), E2F1 (sc-251 Santa Cruz), cyclinD1 (2926, Cell Signaling), p53 (se-126, Santa Cruz), p21 (SC-6246 Santa Cruz) were used according to manufacturers protocols.
To test this hypothesis, specific members of the p16/Rb pathway were genetically modulated, and the levels of COX-2 protein expression compared to HMEC that maintain p16 expression were determined. First, basal and induced COX-2 protein levels in HMEC lacking p16 activity were compared.
To extend this analysis, we determined how other alterations within this pathway, mutations common in cancer, affect COX-2 expression. We modulated the p16/Rb pathway by three additional methods, cyclin D1 overexpression, pRb downregulation, and expression of a viral oncoprotein, HPV 16-E7 and determined the effect on basal and exogenously-induced COX-2 protein levels. To determine if cyclin D1 induces and/or sensitizes cells to COX-2 induction, we measured COX-2 protein levels in HMEC engineered to stably express cyclin D1 under the regulation of an independent, constitutively active promoter. […] The absence of E2F1 upregulation following cyclin D1 overexpression supports our finding that Rb remains active. […] To determine if inactivation of Rb is sufficient for the upregulation of COX-2, we infected HMEC with a retrovirus containing a short hairpin RNA against Rb (shRb) and determined COX-2 protein levels in cells from two independent experiments. […] Similar to results obtained with Rb genetic silencing, expression of the human papilloma virus 16-E7 (HPV 16-E7) elevated both basal and induced levels of COX-2 protein (FIG. 12D). Stable expression of HPV16-E7 was performed in cells generated from three independent reduction mammoplasties. Mammary epithelial cells expressing HPV 16-E7 show downregulation of Rb and thus inactivation of Rb and consequently upregulation of E2F1 (FIG. 12D). HPV16-E7 is well characterized for its role as a transforming oncoprotein through targeted degradation of all three members of Rb family (Rb, p107 and p130) and driving E2F-dependent transactivation.
FIG. 12A-E. Deregulation of distinct members of the p16/cyclin D1/Rb pathway differentially regulate COX-2. […]

[2] = tested on: vHMEC-ras0.5 cells; assay: scratch migration assay of vHMEC-ras0.5 monolayers with time-lapse microscopy; details: TGFβ treated versus untreated cells
[3] = tested on: vHMEC-ras0.5 cells; assay: TGFβ-induced EMT in vHMEC-ras0.5 cells (immunofluorescence, flow cytometry, immunoblot, MSP)
Method: Having observed that extracellular signaling induced by 10% serum can cooperate with intracellular ras activation to induce EMT in vHMEC, it was then asked whether appropriate growth factor stimulation could induce EMT in the immortalized vHMEC-ras0.5 cells which had maintained their epithelial morphology. […] Thiery et al. (2003) Curr. Opinion Cell. Biol. 15:740; and Zavadil et al. (2005) Oncogene 24:5764. vHMEC-ras0.5 cells were treated with TGFβ and the expression of molecular markers associated with EMT was assessed by immunofluorescence, flow cytometry, and immunoblot analysis. […] Coincident with the loss of epithelial marker expression was an upregulation in the expression of the mesenchymal markers, twist (FIG. 18B), N-cadherin, and fibronectin (FIG. 18C).
Unlike the EMT observed in cells exposed to 10% serum, TGFβ-induced EMT is reversible. […] As expected, the promoter of the epithelial marker 14-3-3σ remained unmethylated in all the epithelial cells, and methylated in the human mammary fibroblasts, which were used as a positive control (FIG. 18D).
FIGS. 18A-D. TGFβ induces EMT in vHMEC-ras0.5 cells without modulating methylation of E-cadherin. A. Inununofluorescence analysis. Cells were treated with 2 ng/ml TGFβ for 72 h, and immunostained for pancytokeratin, E-cadherin, β 1-integrin, and vimentin. B. Flow cytometric analysis of twist expression before (green curve) and after (purple curve) treatment with 2 ng/ml TGFβ for 72 h. C. Immunoblot analysis of the mesenchymal markers fibronectin (Fn) and N-cadherin (N-cad) was performed on cell lysates prepared from vHMEC-ras0.5 that were either untreated (−) or treated (+) with 2 ng/ml TGFβ for 72 h. Cell lystates prepared from human mammary fibroblasts were used as a positive control (C) and actin is shown as a loading control. D. MSP analysis of E-cadherin and 14-3 3σ was conducted on the PCR products of bisulfite-treated DNA isolated from vHMEC-ras0.5 untreated (−TGF) or treated (+TGF) with 2 ng/ml TGFβ for 96 h as described in FIGS. 3B and C. Bisulfite-modified DNA from MCF7 and MDA-MB-231 cells was used as unmethylated and methylated control templates, respectively for E-cadherin, while bisulfite-modified DNA from MDA-MB-231 and human mammary fibroblasts (HMF) served as unmethylated and methylated controls for 14-3-3s. Also included is a water control (no template).

[4] = tested on: COX-2 in vHMEC over expressing TRF2; assay: phospho-p38 inhibitor treatment of vHMEC over expressing TRF2; COX-2 by Q-PCR and immunoblot; details: early passage vHMEC expressing TRF2, SB203580 24 hrs
Excerpt: Cell Culture: Human mammary epithelial cells (vHMEC) were isolated from reduction mammoplasty (RM) of four individuals RM9, RM15, RM16 and RM18. HMEC undergo a spontaneous proliferation barrier between 8 and 12 population doublings. Variant human mammary epithelial cells (vHMEC) escape this growth barrier and have silenced p16 through promoter methylation. Cells were propagated in 2D cultures in modified MCBD 170 media (MEGM, Lonza) as previously described (Romanov et al, 2001; Hammond et al 1984). All experiments were performed on exponentially growing early passage vHMEC (between 13 to 20 population doublings); RM9, 15, 16 and 18 cease to expand in cell number at population doublings 45, 60, 50 and 53, respectively. […]
(§1) Quantitative PCR: Total RNA was isolated from cells and cDNA synthesized using standard methods. cDNA was subsequently used for quantitative real-time PCR using the standard curve method. […]
(§2) Western Blotting, ELISA and Immunofluorescence: Cell pellets were lysed in T-PER buffer (Pierce). […] Activin A protein levels were measured using the Duo-Set Activin ELISA kit (R&D Systems) following the manufacturer's directions. […] Levels of activin A were determined in cells from all four donors. […] The mean fluorescent intensity of γH2AX signal (voxels) in each nucleus was determined with the Volocity 4.0.0 software package (Improvision) on Z-stacks. […]

[5] = tested on: COX-2 and phospho-p38 in vHMEC; assay: exogenous activin A treatment of vHMEC; COX-2 and phospho-p38 by Q-PCR and immunoblot; details: exogenous activin A 48 hrs
Excerpt: Cell Culture: Human mammary epithelial cells (vHMEC) were isolated from reduction mammoplasty (RM) of four individuals RM9, RM15, RM16 and RM18. HMEC undergo a spontaneous proliferation barrier between 8 and 12 population doublings. Variant human mammary epithelial cells (vHMEC) escape this growth barrier and have silenced p16 through promoter methylation. Cells were propagated in 2D cultures in modified MCBD 170 media (MEGM, Lonza) as previously described (Romanov et al, 2001; Hammond et al 1984). All experiments were performed on exponentially growing early passage vHMEC (between 13 to 20 population doublings); RM9, 15, 16 and 18 cease to expand in cell number at population doublings 45, 60, 50 and 53, respectively. Activin A (Sigma) and the p38 inhibitor, SB203580, (Sigma) were added to culture media for 48 and 24 hours (respectively) prior to harvest at the doses shown in FIGS. 3 and 4. The same amount of solvent for each molecule was added to the culture media for controls.
as §1, §2
FIGS. 23A-D: Activin A is Up Regulated in vHMEC and Induces COX-2. A. Box plot showing the levels of activin A mRNA measured using Q-PCR in parental vHMEC, or vHMEC over expressing vector (pWP) or TRF2 from 4 donors. p-value was calculated using ANOVA and is shown in the inset. B, Box plot showing the levels of activin A protein measured using ELISA in parental vHMEC or vHMEC over expressing vector (pWP) or TRF2 from 4 donors. […]

[6] = 2 ng/ml TGFβ for 72 h, immunofluorescence

## TGF-β
[1]; HMEC expressing HPV 16-E7, 24 h exposure to 1 ng/ml TGF-β
  COX-2 protein after exogenous induction: elevated
[1]; HMEC overexpressing cyclin D1, 24 h exposure to 1 ng/ml TGF-β
  COX-2 protein after exogenous induction: failed to render cells sensitive
[1]; HMEC with shRb, 24 h exposure to 1 ng/ml TGF-β
  COX-2 protein after exogenous induction: increased
[1]; p16 silenced HMEC (shp16), 24 h exposure to 1 ng/ml TGF-β
  COX-2 protein after exogenous induction: COX-2 upregulation
[1]; vector control HMEC (pMSCV), 24 h exposure to 1 ng/ml TGF-β
  COX-2 protein after exogenous induction: unresponsive
[2]
  migration into the denuded area: increase in directed migration
[3]; 2 ng/ml TGFβ for 72 h, flow cytometry and immunoblot
  expression of the mesenchymal markers twist, N-cadherin and fibronectin: upregulation
[3]; [6]
  E-cadherin expression: loss
  cytokeratin expression: diminution
  β1-integrin expression: loss
[3]; 2 ng/ml TGFβ for 96 h, MSP
  methylation of the E-cadherin promoter: not observed
[3]; 2 ng/ml TGFβ, began within 48 h, clearly manifested by 72 h
  cell morphology (EMT): morphological change

## C[S+]([O-])c1ccc(-c2nc(-c3ccncc3)c(-c3ccc(F)cc3)[nH]2)cc1 (centres unmarked) [SB203580]
[4]; Q-PCR, ANOVA p=0.002
  COX-2 mRNA: marked decrease
[4]; immunoblot
  COX-2 protein levels: marked decrease

B1: activin A: a member of the TGF-β superfamily; a homodimer of the activin βA subunits (protein, UniProt P08476 311-426, looked up)
Inhibin beta A chain: GLECDGKVNICCKKQFFVSFKDIGWNDWIIAPSGYHANYCEGECPSHIAGTSGSSLSFHSTVINHYRMRGHSPFANLKSCCVPTKLRPMSMLYYDDGQNIIKKDIQNMIVEECGCS
modifications: Inhibin beta A chain
[5]; vHMEC from two donors, Q-PCR, ANOVA p=0.001
  increase in COX-2 mRNA: approximately two-fold
[5]; vHMEC from two donors, immunoblot
  increase in COX-2 protein: approximately two-fold
[5]; vHMEC, immunoblot
  levels of phospho-p38: increase
